Test results: patent US20080227832A1, “Modified Coffee, Method of Roasting Coffee Bean, Coffee-Like Supplement and Auxiliary Food” (TAMA-TLO Corporation, priority 2004, published 2008)
Like-named read-outs stand apart in the source and are kept apart here.

Experiments:
[1] = Metabolites in 24-hour urine of rats given Maillard reaction products orally (HPLC); settings: rat
Description: Then, 100 μl of acetonitrile/phosphate buffer (7/93) adjusted to pH 2.0 was injected into the HPLC apparatus through the injection microsyringe. The apparatus and the experimental conditions were the same as those described above.
The specification of the HPLC apparatus and experimental conditions were the same as described above.

[2] = test system: male Wistar rats; assay: Blood free-fatty acid level time course after 5-MPCA; assay type: in vivo, rat; settings: 50 mg/kg, 1, 2, 4 and 6 hours after administration
Description: Further, using four-week-old male Wistar rats, the following experiment was performed. A control group was administered with physiological saline. A test group was administered with a solution of 50 mg/kg of 5-methylpyrazine-2-carboxylic acid (5-MPCA) dissolved in physiological saline. Immediately before starting the administration and 1, 2, 4, and 6 hours after the administration, each 6 rats were decapitated and blood was collected from each rat. According to a conventional method, plasma was separated from each sample blood and blood levels of free-fatty acid (FFA) were determined using a kit for determining free-fatty acid level. […] That is, FIG. 10 is a diagram showing the effect of 5-methylpyrazinecarboxylic acid on the blood free-fatty acid level of the rats.

[3] = test system: absorption of glucose in digestive tracts; settings: animal test; cited from earlier work
[4] = test system: male Wistar rats
[5] = test system: male Wistar rats; settings: oral, 10 mg/kg nicotinic acid alone
[6] = Water solubility as described for addition to liquid foods; assay type: physicochemical
Description: The case where the above-mentioned group A to C compounds are added to any liquid foods and beverages (coffee, refreshing beverages, etc.) or hydrophilic solutions (for example, aqueous solutions and alcohol solutions) is described hereinbelow. […] Since the group B compounds are water-soluble but have strong volatility, it is recommended that simple dissolution thereof may be performed after concentration of a coffee extract and freeze-drying, if any. […] Since the group C compounds are water-soluble but have weak volatility, they may be simply dissolved similarly to the group B compounds.

[7] = test system: insulin sensitivity; settings: rat, in vivo; cited from earlier work

## Cc1cnc(C)cn1 [2,5-dimethylpyrazine]
[1]; 50 mg/kg, 24-hour urine
  conversion by metabolism in liver: converted into a group C compound

## Cc1cnc(C(=O)O)cn1 [5-MPCA, 5-methyl-pyrazine-2-carboxylic acid]
[2]
  rebound phenomenon of blood free-fatty acid level: no rebound phenomenon

## O=C(/C=C/c1ccc(O)c(O)c1)O[C@@H]1C[C@](O)(C(=O)O)C[C@@H](O)[C@H]1O [Chlorogenic acid, chlorogenic acid]
[3]
  speed of absorption of glucose in digestive tracts: reducing a speed of absorption of glucose in digestive tracts

## O=C(O)c1cccnc1 [nicotinic acid]
[4]; 10 to 20 mg/kg
  time after which rebound phenomenon was observed: 2 h
[4]; oral, 5 mg/kg
  time after which rebound phenomenon was observed: 1 h
[4]; oral, 10 mg/kg
  time after which rebound phenomenon was observed: 2 h
[4]; oral, 50 mg/kg
  time after which rebound phenomenon was observed: 4 h
[4]; oral, any dose of from 5 mg/kg to 50 mg/kg
  blood free-fatty acid level after 30 minutes of the administration: ≤ 0.5 mEq/l
[5]
  rebound phenomenon after 1 hour of the administration: present in a mixed manner
  rebound phenomenon after 2 hours of the administration: all the animals showed the rebound phenomenon

## O=Cc1ccc[nH]1 [pyrrole-2-aldehyde]
[1]; 50 mg/kg oral, urine collected after 24 hours
  recovery in urine (in words): almost quantitative

## Cc1nc(C)c(C)nc1C [tetramethylpyrazine]
[6]
  water solubility: hardly water-soluble

## chlorogenic lactone
[7]
  insulin sensitivity: Enhancement of insulin sensitivity
